Patent publication US11096865B2, “Preservative removal from eye drops” (TearClear Corp., priority 2019, dated 2021)

Experiment: 30 day drop test, API retention after dropper tip packed with OxPO
Format: physicochemical
Settings: for API concentration in drops: tip packed with OxHDPE A-C 395, 125-250 μm, acid washed; for API concentration: Initial formulation
Experimental: To 60.0 g of ultrapure water was added 0.090 g hydroxyethyl cellulose (Natrosol 250H) and the solution was stirred overnight to dissolve. Subsequently, 0.176 g sodium citrate dihydrate and 0.960 g mannitol were added and the mixture was stirred until completely dissolved. 1.37 g Dorzolamide Hydrochloride, 0.420 g Timolol Maleate and 0.045 g of a 10% aqueous solution of BAK were added and incorporated. The pH was adjusted to 5.65 with 0.01N NaOH solution. The final nominal concentrations are reported below.
An empty dropper tip equipped with a 25 μm filter at the tip exit was packed with approximately […] of OxPO and the backing filter was attached to retain the OxPO packing in place. The weight of the OxPO packing was recorded. The packed tip was then inserted into the neck of an 8 ml dropper bottle containing 5 ml of the API/BAK test solution.
5 ml of the formulation described above containing nominally 5.0 mg/ml Timolol, 20.0 mg/ml Dorzolamide and 75 μg/ml BAK was loaded into six eyedropper bottles packed with OxHDPE (A-C 395, 125-250 μm, acid washed) as described above. Drops were obtained from each bottle twice a day (AM and PM 8 hours apart) and analyzed by HPLC for API and BAK.

CCN[C@H]1C[C@H](C)S(=O)(=O)c2sc(S(N)(=O)=O)cc21 [Dorzolamide]
20.1 mg/mL: API concentration in drops (Day 1P) | API concentration in drops (Day 8A) | API concentration in drops (Day 10P) | API concentration in drops (Day 26P) | API concentration in drops (Day 27A) | API concentration in drops (Day 27P) | API concentration in drops (Day 28A) | API concentration in drops (Day 30A) | API concentration in drops (Day 30P)
20.0 mg/mL: API concentration in drops (Day 1A) | API concentration in drops (Day 14P) | API concentration in drops (Day 22A)
19.8 mg/mL: API concentration in drops (Day 5P) | API concentration in drops (Day 6A) | API concentration in drops (Day 9A) | API concentration in drops (Day 10A) | API concentration in drops (Day 12A) | API concentration in drops (Day 15A) | API concentration in drops (Day 16P) | API concentration in drops (Day 23A) | API concentration in drops (Day 23P) | API concentration in drops (Day 24A) | API concentration in drops (Day 24P)
19.3 mg/mL: API concentration in drops (Day 4A)
19.6 mg/mL: API concentration in drops (Day 3P) | API concentration in drops (Day 18P) | API concentration in drops (Day 20A) | API concentration in drops (Day 21A) | API concentration in drops (Day 25A) | API concentration in drops (Day 29A) | API concentration in drops (Day 29P)
20.3 mg/mL: API concentration in drops (Day 7A) | API concentration in drops (Day 7P)
19.2 mg/mL: API concentration in drops (Day 2A) | API concentration in drops (Day 19A)
19.4 mg/mL: API concentration in drops (Day 2P) | API concentration in drops (Day 17A) | API concentration in drops (Day 17P)
20.2 mg/mL: API concentration in drops (Day 6P) | API concentration in drops (Day 8P) | API concentration in drops (Day 26A)
19.5 mg/mL: API concentration in drops (Day 3A) | API concentration in drops (Day 9P) | API concentration in drops (Day 16A) | API concentration in drops (Day 19P) | API concentration in drops (Day 22P)
21.0 (mg/ml): API concentration
19.9 mg/mL: API concentration in drops (Day 11A) | API concentration in drops (Day 11P) | API concentration in drops (Day 12P) | API concentration in drops (Day 13A) | API concentration in drops (Day 13P) | API concentration in drops (Day 15P) | API concentration in drops (Day 28P)
19.7 mg/mL: API concentration in drops (Day 4P) | API concentration in drops (Day 5A) | API concentration in drops (Day 14A) | API concentration in drops (Day 18A) | API concentration in drops (Day 20P) | API concentration in drops (Day 21P) | API concentration in drops (Day 25P)

CC(C)(C)NC[C@H](O)COc1nsnc1N1CCOCC1 [Timolol]
5.02 mg/mL: API concentration in drops (Day 20P)
4.92 mg/mL: API concentration in drops (Day 21A)
4.84 mg/mL: API concentration in drops (Day 9A)
4.68 mg/mL: API concentration in drops (Day 5A)
4.64 mg/mL: API concentration in drops (Day 2P)
4.59 mg/mL: API concentration in drops (Day 4A)
4.85 mg/mL: API concentration in drops (Day 8A)
4.87 mg/mL: API concentration in drops (Day 9P) | API concentration in drops (Day 15A) | API concentration in drops (Day 19A)
4.86 mg/mL: API concentration in drops (Day 7A) | API concentration in drops (Day 12A) | API concentration in drops (Day 14A)
4.72 mg/mL: API concentration in drops (Day 4P)
4.97 mg/mL: API concentration in drops (Day 14P) | API concentration in drops (Day 17P) | API concentration in drops (Day 18P) | API concentration in drops (Day 23P) | API concentration in drops (Day 26A) | API concentration in drops (Day 27P) | API concentration in drops (Day 30P)
4.60 mg/mL: API concentration in drops (Day 3A)
4.93 mg/mL: API concentration in drops (Day 1A) | API concentration in drops (Day 13P) | API concentration in drops (Day 15P) | API concentration in drops (Day 22P) | API concentration in drops (Day 25P) | API concentration in drops (Day 28A) | API concentration in drops (Day 29P)
4.94 mg/mL: API concentration in drops (Day 24A)
4.90 mg/mL: API concentration in drops (Day 6P) | API concentration in drops (Day 10P) | API concentration in drops (Day 16A) | API concentration in drops (Day 17A) | API concentration in drops (Day 25A) | API concentration in drops (Day 29A)
4.95 mg/mL: API concentration in drops (Day 12P) | API concentration in drops (Day 21P) | API concentration in drops (Day 28P)
4.99 mg/mL: API concentration in drops (Day 20A)
4.91 mg/mL: API concentration in drops (Day 1P) | API concentration in drops (Day 7P)
4.76 mg/mL: API concentration in drops (Day 6A)
5.04 (mg/ml): API concentration
4.51 mg/mL: API concentration in drops (Day 2A)
4.65 mg/mL: API concentration in drops (Day 3P)
4.89 mg/mL: API concentration in drops (Day 8P) | API concentration in drops (Day 10A) | API concentration in drops (Day 11A) | API concentration in drops (Day 13A)
5.01 mg/mL: API concentration in drops (Day 16P)
4.98 mg/mL: API concentration in drops (Day 18A) | API concentration in drops (Day 19P) | API concentration in drops (Day 22A) | API concentration in drops (Day 30A)
4.78 mg/mL: API concentration in drops (Day 5P)
4.96 mg/mL: API concentration in drops (Day 11P) | API concentration in drops (Day 23A) | API concentration in drops (Day 24P) | API concentration in drops (Day 26P) | API concentration in drops (Day 27A)
